From the OligoGym collection
Several values for one entry are separate records, joined by “and”; a condition that tells them apart may be missing. Equal values may be shown once. HELM strings list units from the 5' end as sugar, base in round brackets, then linkage (d deoxyribose, r ribose, m 2'-O-methyl, p phosphodiester). Strings are as the collection lists them, not checked against the first reports. ss, as = sense and antisense strand; [una] = unlocked nucleic acid; [s4r] = 4'-thioribose

Conditions: siRNA
Note: test system not given here.

Substance	target mRNA knockdown
RNA1{m(A)p.r(U)p.m(A)p.r(C)p.m(U)p.r(U)p.m(G)p.r(G)p.m(C)p.r(G)p.m(G)p.r(G)p.m(C)p.r(U)p.m(C)p.r(U)p.m(U)p.r(U)p.m(C)p.r(T)p.r(T)}|RNA2{m(G)p.r(A)p.r(A)p.r(A)p.m(G)p.r(A)p.m(G)p.r(C)p.r(C)p.r(C)p.m(G)p.r(C)p.r(C)p.r(A)p.r(A)p.m(G)p.r(U)p.r(A)p.r(U)p.r(T)p.r(T)}$$$RNA1{StrandType:ss}|RNA2{StrandType:as}$	25%
RNA1{m(A)p.m(A)p.m(G)p.r(G)p.r(A)p.r(G)p.r(A)p.r(U)p.r(C)p.r(A)p.r(A)p.r(C)p.r(A)p.r(U)p.r(U)p.r(U)p.m(U)p.m(C)p.m(A)p.r(T)p.r(T)}|RNA2{m(U)p.m(G)p.m(A)p.r(A)p.r(A)p.r(A)p.r(U)p.r(G)p.r(U)p.r(U)p.r(G)p.r(A)p.r(U)p.r(C)p.r(U)p.r(C)p.m(C)p.m(U)p.m(U)p.r(T)p.r(T)}$$$RNA1{StrandType:ss}|RNA2{StrandType:as}$	76%
RNA1{[s4r](C)p.[s4r](G)p.[s4r](U)p.[s4r](A)p.[s4r](C)p.[s4r](G)p.[s4r](C)p.[s4r](G)p.[s4r](G)p.[s4r](A)p.[s4r](A)p.[s4r](U)p.[s4r](A)p.[s4r](C)p.[s4r](U)p.[s4r](U)p.[s4r](C)p.[s4r](G)p.[s4r](A)p.r(T)p.r(T)}|RNA2{r(U)p.r(C)p.r(G)p.r(A)p.r(A)p.r(G)p.r(U)p.r(A)p.r(U)p.r(U)p.r(C)p.r(C)p.r(G)p.r(C)p.r(G)p.r(U)p.r(A)p.r(C)p.r(G)p.r(T)p.r(T)}$$$RNA1{StrandType:ss}|RNA2{StrandType:as}$	60.3%
RNA1{r(A)p.r(G)p.r(C)p.m(C)p.r(A)p.m(C)p.r(A)p.r(U)p.r(U)p.r(U)p.r(C)p.m(U)p.r(A)p.r(G)p.r(G)p.r(A)p.r(G)p.r(A)p.r(U)p.r(T)p.r(T)}|RNA2{r(A)p.r(U)p.r(C)p.r(U)p.r(C)p.r(C)p.m(U)p.r(A)p.m(G)p.r(A)p.r(A)p.r(A)p.r(U)p.r(G)p.m(U)p.r(G)p.r(G)p.r(C)p.r(U)p.r(T)p.r(T)}$$$RNA1{StrandType:ss}|RNA2{StrandType:as}$	26%
RNA1{r(C)p.r(G)p.r(U)p.r(A)p.r(C)p.r(G)p.r(C)p.r(G)p.r(G)p.r(A)p.r(A)p.r(U)p.r(A)p.r(C)p.r(U)p.r(U)p.r(C)p.r(G)p.r(A)p.r(T)p.r(T)}|RNA2{[s4r](U)p.[s4r](C)p.[s4r](G)p.[s4r](A)p.[s4r](A)p.[s4r](G)p.r(U)p.r(A)p.r(U)p.r(U)p.r(C)p.r(C)p.r(G)p.[s4r](C)p.[s4r](G)p.[s4r](U)p.[s4r](A)p.[s4r](C)p.[s4r](G)p.r(T)p.r(T)}$$$RNA1{StrandType:ss}|RNA2{StrandType:as}$	22.8%
RNA1{m(G)p.r(C)p.m(U)p.r(U)p.m(U)p.r(A)p.m(A)p.r(G)p.m(G)p.r(A)p.m(A)p.r(C)p.m(U)p.r(G)p.m(G)p.r(A)p.m(A)p.r(G)p.m(G)p.r(T)p.r(T)}|RNA2{r(C)p.r(C)p.r(U)p.r(U)p.r(C)p.r(C)p.r(A)p.m(G)p.r(U)p.r(U)p.r(C)p.r(C)p.r(U)p.r(U)p.r(A)p.r(A)p.r(A)p.m(G)p.r(C)p.r(T)p.r(T)}$$$RNA1{StrandType:ss}|RNA2{StrandType:as}$	51%
RNA1{r(A)p.r(A)p.r(C)p.r(C)p.r(C)p.r(A)p.r(C)p.r(C)p.r(A)p.r(C)p.r(A)p.r(G)p.r(C)p.m(U)p.r(A)p.r(G)p.r(A)p.r(A)p.r(C)p.r(U)p.r(U)}|RNA2{r(A)p.r(A)p.r(G)p.r(U)p.r(U)p.r(C)p.r(U)p.r(A)p.r(G)p.r(C)p.r(U)p.r(G)p.r(U)p.r(G)p.r(G)p.r(U)p.r(G)p.r(G)p.r(G)p.r(U)p.r(U)}$$$RNA1{StrandType:ss}|RNA2{StrandType:as}$	84% and 82%
RNA1{r(G)p.r(U)p.r(A)p.r(U)p.r(G)p.r(A)p.r(C)p.r(C)p.r(G)p.r(A)p.r(C)p.r(U)p.r(A)p.r(C)p.r(G)p.r(C)p.r(G)p.r(U)p.r(A)p.r(T)p.r(T)}|RNA2{r(U)p.r(U)p.r(C)p.r(A)p.r(G)p.r(U)p.r(G)p.r(U)p.r(G)p.r(A)p.[una](U)p.r(G)p.r(A)p.r(C)p.r(A)p.r(C)p.r(U)p.r(U)p.r(G)p.r(T)p.r(T)}$$$RNA1{StrandType:ss}|RNA2{StrandType:as}$	0%
